The record followed here is patent US20140377219A1, “HIV INHIBITORS” (New york Blood Center, Inc., priority 2011, published 2014).

Each structure is given as a SMILES string. Read-outs that look alike come from different tables or passages of the source.

For one data set, the system named is HIV-1 SF2. Put plainly: Multi-cycle neutralization assay in MT-2 cells. Conditions: read-out: IC50 (μM) ± S.D., inhibitory activity on infection; SF2, subtype B, MT-2, R5X4, laboratory strain.
The test system of another data set is HIV-1 SF162. Put plainly: Neutralization assay in PBMC (p24 ELISA). Conditions: read-out: IC50 (μM) ± S.D., inhibitory activity on infection; SF162, subtype B, PBMC, R5, laboratory strain.
Data set [1] concerns primary HIV-1 isolate RU570 (clade G, R5). Put plainly: Neutralization assay in PBMC (p24 ELISA). Conditions: read-out: IC50 (μM) ± S.D., inhibitory activity on infection; RU570, subtype G, PBMC, R5, primary isolate.
Procedure: (§1) PBMCs were isolated from the blood of healthy donors at the New York Blood Center by standard density-gradient centrifugation using Histopaque-1077 (Sigma-Aldrich). The cells were cultured at 37° C. for 2 h. Non-adherent cells were collected and resuspended at 5×10^6 cells/ml in RPMI-1640 medium containing 10% (v/v) fetal bovine serum, 5 μg/ml of phytohemagglutinin, and 100 U/ml of IL-2 (Sigma-Aldrich), followed by incubation at 37° C. for three days.
The subject of data set [2] is HIV-1 RF/L-323-12-3 (protease resistant isolate). Put plainly: Multi-cycle neutralization assay in MT-2 cells. Conditions: read-out: IC50 (μM) ± S.D., inhibitory activity on infection; HIV-1 RF/L-323-12-3, subtype B, MT-2, X4, protease resistant isolate.
Data set [3] deals with primary HIV-1 isolate 92UG031 (subtype A, R5). Kind of data set: Neutralization assay in PBMC (p24 ELISA). Conditions: read-out: IC50 (μM) ± S.D., inhibitory activity on infection; 92UG031, subtype A, PBMC, R5, primary isolate.
Procedure: (§2) The inhibitory activity of small molecules on infection by primary HIV-1 isolates was determined. PBMCs were isolated from the blood of healthy donors at the New York Blood Center by standard density-gradient centrifugation using Histopaque-1077 (Sigma-Aldrich). The cells were cultured at 37° C. for 2 h. Non-adherent cells were collected and resuspended at 5×10^6 cells/ml in RPMI-1640 medium containing 10% (v/v) fetal bovine serum, 5 μg/ml of phytohemagglutinin, and 100 U/ml of IL-2 (Sigma-Aldrich), followed by incubation at 37° C. for three days.
The next data set concerns MT-2 cells. Kind of data set: Cytotoxicity in MT-2 cells (XTT). The class given is cell-based. The procedure, abridged: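 XTT viability read-out: MT-2 cells (10^5 cells/ml) incubated with graded compound concentrations four days at 37° C; PBMC at 5×10^5 cells/ml, measured after seven days. CC50 derived from percentage cytotoxicity.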
The subject of another data set is TZM-bl cells. Kind of data set: Cytotoxicity in TZM-bl cells (XTT). The format is cell-based. The procedure, abridged:
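TZM-bl cells (10^5/ml) combined with equal volumes of compound at graded concentrations and incubated 3 days at 37° C. Viability measured colorimetrically by XTT tetrazolium dye reduction.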

In data set [4] the test system is primary HIV-1 isolate 93BR029 (clade F, R5). Kind of data set: Neutralization assay in PBMC (p24 ELISA). Conditions: read-out: IC50 (μM) ± S.D., inhibitory activity on infection; 93BR029, subtype F, PBMC, R5, primary isolate.
Procedure: as §1
Data set [5] concerns laboratory-adapted HIV-1 IIIB strain.
Data set [6] concerns Panel C env ZM-135M.PL10a, SVPC15. The format is cell-based. Conditions: TZM-bl, read-out: IC50 (μM) ± S.D., antiviral activity against HIV-1 envelope pseudoviruses.
Data set [7] has as its system AZT-resistant (AZT-R) HIV-1 strain. Kind of data set: Multi-cycle neutralization assay in MT-2 cells. Conditions: read-out: IC50 (μM) ± S.D., inhibitory activity on infection; AZT-R, subtype B, MT-2, X4, RT-resistant isolate.
For data set [8], the system named is pNL4-3 gp41 (36G) V38E, N42S (fusion resistant isolate). The class given is cell-based, HIV-1. Conditions: subtype B, MT-2, X4, fusion resistant isolate, read-out: IC50 (μM) ± S.D., inhibitory activity on infection.
The test system of data set [9] is Panel C env ZM-249M.PL1, SVPC10. The format is cell-based. Conditions: TZM-bl, read-out: IC50 (μM) ± S.D., antiviral activity against HIV-1 envelope pseudoviruses.
Data set [10] relates to Panel C env CAP-45.2.00.G3, SVPC16. The class given is cell-based. Conditions: TZM-bl, read-out: IC50 (μM) ± S.D., antiviral activity against HIV-1 envelope pseudoviruses.
Data set [11] deals with primary HIV-1 isolate 93IN101 (subtype C, R5). Put plainly: Neutralization assay in PBMC (p24 ELISA). Conditions: read-out: IC50 (μM) ± S.D., inhibitory activity on infection; 93IN101, subtype C, PBMC, R5, primary isolate.
Procedure: as §2
Data set [12] deals with Panel C env ZM-109F.PB4, SVPC13. The class given is cell-based. Conditions: TZM-bl, read-out: IC50 (μM) ± S.D., antiviral activity against HIV-1 envelope pseudoviruses.
In data set [13] the test system is Panel B env pCAAN5342 clone A2 (SVPB19). The class given is cell-based. Conditions: TZM-bl, read-out: IC50 (μM) ± S.D., antiviral activity against HIV-1 envelope pseudoviruses.
A further data set concerns HIV-1 BaL. Put plainly: Neutralization assay in PBMC (p24 ELISA). Conditions: read-out: IC50 (μM) ± S.D., inhibitory activity on infection, BaL, subtype B, R5, laboratory strain.
Data set [14] has as its system primary HIV-1 isolate 93MW959 (clade C, R5). Kind of data set: Neutralization assay in PBMC (p24 ELISA). Conditions: read-out: IC50 (μM) ± S.D., inhibitory activity on infection, 93MW959, subtype C.
Procedure: as §2
For data set [15], the system named is Panel C env CAP-210.2.00.E8, SVPC17. The format is cell-based. Conditions: TZM-bl, read-out: IC50 (μM) ± S.D., antiviral activity against HIV-1 envelope pseudoviruses.
The next data set deals with HIV-1 89.6. Put plainly: Neutralization assay in PBMC (p24 ELISA). Conditions: read-out: IC50 (μM) ± S.D., inhibitory activity on infection; 89.6, subtype B, PBMC, R5X4, laboratory strain.
[16] abbreviates: read-out: IC50 (μM) ± S.D., inhibitory activity on infection, IIIB, subtype B, MT-2, X4, laboratory strain.
Where [17] appears, read: read-out: MT-2 Cells IC50 (μM ± SD), multi-cycle assay, MT-2 cells, HIV-1 IIIB.
Where [18] appears, read: MT-2 cells, XTT, four days, read-out: MT-2 Cells CC50.
Where [19] appears, read: at the dose given as CC50 bound.
The mark [20] stands for this setting: TZM-bl cells, XTT, 3 days, read-out: TZM-bl cells CC50 (μM ± SD).

Procedure for HIV-1 89.6: as §2
Procedure for HIV-1 BaL: as §1
Procedure for HIV-1 SF162: as §1

As to `Cc1nc(C(NC(=O)C(=O)Nc2ccc(Cl)cc2)C2CCCCN2)sc1CO.Cl` (stereo not shown) [Compound 6, N^1-(4-chlorophenyl)-N^2-((5-(hydroxymethyl)-4-methylthiazol-2-yl)(piperidin-2-yl)methyl)oxalamide.HCl], the half-maximal inhibitory concentration (IC50) in the data set on HIV-1 SF2 is 5.7 ± 0.9 µM; with HIV-1 SF162, 12.7 ± 0.7 µM; in [1] it was 8.5 ± 0.8 µM; in data set [2], 14.7 ± 2.3 µM; in [3], 9.3 ± 0.7 µM; in data set [4], 8 ± 1.3 µM. Besides, the IC50 in [5] (setting [16]) amounted to 4.7 ± 0.6 µM; in data set [5] (setting [17]), 4.7 ± 0.6 µM; in data set [6], 0.73 ± 0.13 µM; in data set [7] it was 4.4 ± 1.1 µM; in [8] it was 5.8 ± 0.3 µM; in data set [9] it was 1.5 ± 0.6 µM. Also, the 50% inhibitory concentration (IC50) was 4.7 ± 0.95 µM in data set [10]; over 87 µM in data set [11]; 1.2 ± 0.2 µM in [12]; 2.3 ± 0.3 µM in data set [13]; 35.8 ± 1.2 µM in the data set on HIV-1 BaL; over 43.5 µM in data set [14]. For the same compound, the IC50 in data set [15] worked out at 15.1 ± 1.5 µM. Besides, in the data set on MT-2 cells, the “% toxicity at that dose (number in parenthesis), MT-2 cells” value worked out at 40%. Further, the half-maximal cytotoxic concentration (CC50) in the data set with MT-2 cells was over 108 µM; in the data set with TZM-bl cells, over 22 µM. Moreover, the “% toxicity at that dose (number in parenthesis), TZM-bl cells” value (from here on “% toxicity at that dose … TZM-bl cells”) in the data set on TZM-bl cells amounted to 10%.
For `Cc1ccc(NC(=O)C(=O)NC(c2nc(C)c(CO)s2)C2CCCCN2)cc1F.Cl` (stereo not shown) [Compound 28, N^1-(3-fluoro-4-methylphenyl)-N^2-((5-(hydroxymethyl)-4-methylthiazol-2-yl)(piperidin-2-yl)methyl)oxalamide.HCl], the IC50 is 38.7 ± 4.5 µM with HIV-1 SF2; 8.1 ± 1.2 µM with HIV-1 SF162; 15.7 ± 0.2 µM in data set [1]; 3.9 ± 0.5 µM with HIV-1 89.6; 4.8 ± 0.9 µM in data set [2]; 13.4 ± 1.2 µM in data set [3]. Besides, the half-maximal inhibitory concentration (IC50) was 5.2 ± 1.1 µM in [4]; 3.7 ± 0.7 µM in data set [5] (setting [16]); 5.3 ± 0.5 µM in data set [5] (setting [17]); 5.5 ± 0.7 µM in [7]; 4.6 ± 0.4 µM in data set [8]; over 42 µM in [9]. Moreover, the 50% inhibitory concentration (IC50) in data set [11] is over 85 µM; in data set [12], over 42 µM; in data set [13] it was 1.5 ± 0.1 µM; with HIV-1 BaL, 23.7 ± 0.3 µM; in [14], over 42.5 µM; in data set [15], over 42 µM. The CC50 was about 85 µM with MT-2 cells (MT-2 cells, XTT, four days, listed as NBD-11008, read-out: MT-2 Cells CC50); over 88 µM in the data set on MT-2 cells (setting [18]); over 88 µM in the data set on TZM-bl cells (setting [20]). Also, in the data set on MT-2 cells (setting [19]), the “% toxicity at that dose (number in parenthesis), MT-2 cells” value worked out at 30%. In addition, the “% toxicity at that dose … TZM-bl cells” value in the data set with TZM-bl cells (setting [19]) came to 0%.
Turning to `Cc1nc(C(NC(=O)C(=O)Nc2ccc(Cl)c(F)c2)C2CCCCN2)sc1CCO.Cl` (stereo not shown) [Compound 39, N^1-(4-chloro-3-fluorophenyl)-N^2-((5-(2-hydroxyethyl)-4-methylthiazol-2-yl)(piperidin-2-yl)methyl)oxalamide.HCl], the IC50 with HIV-1 SF2 worked out at 15.8 ± 1.7 µM; in the data set with HIV-1 SF162, 11.9 ± 1 µM; in data set [1], 10.7 ± 0.5 µM; in the data set on HIV-1 89.6, 6.2 ± 0.3 µM; in data set [2], 6.9 ± 1 µM; in [3], 12.9 ± 1.5 µM. Besides, the IC50 in data set [4] was 8.3 ± 0.7 µM; in [5] (setting [16]), 3.5 ± 0.9 µM; in data set [5] (setting [17]) it was 3.5 ± 0.9 µM; in data set [6], 0.61 ± 0.1 µM; in data set [7], 6.8 ± 0.6 µM; in [8], 3.9 ± 0.3 µM. Also, the IC50 is 2.5 ± 0.2 µM in data set [9]; 3.4 ± 0.4 µM in [10]; about 81.5 µM in data set [11]; 3 ± 0.1 µM in [12]; 0.8 ± 0.3 µM in data set [13]; 24.9 ± 4.5 µM in the data set with HIV-1 BaL. For the same compound, the IC50 in data set [15] was found to be 3.2 ± 0.6 µM. Moreover, in the data set with TZM-bl cells, the CC50 is about 61 µM.
In the case of `CC1(C)CC(NC(=O)C(=O)Nc2ccc(Cl)cc2)CC(C)(C)N1` [NBD-556, reference compound], the 50% inhibitory concentration (IC50) with HIV-1 SF2 is at least 118 µM; with HIV-1 SF162 it was 48.9 ± 7.3 µM; in [1], 19.5 ± 2.3 µM; with HIV-1 89.6, 4.8 ± 1 µM; in data set [2], over 59 µM; in [4], 40 ± 10.6 µM. The 50% inhibitory concentration (IC50) in data set [5] (setting [16]) amounted to 6.5 ± 0.1 µM; in [5] (setting [17]) it was 8 ± 0.2 µM; in data set [6], 1.5 ± 0.01 µM; in [7], 58 ± 14.3 µM; in data set [8] it was 11 ± 0.9 µM; in data set [9] it was 6.1 ± 1.7 µM. Moreover, the IC50 is 7.9 ± 0.87 µM in data set [10]; 10.4 ± 3.5 µM in [12]; 2.4 ± 0.3 µM in data set [13]; at least 118 µM in the data set with HIV-1 BaL; 57.2 ± 8.7 µM in [14]; 13.3 ± 1.3 µM in data set [15]. Besides, the cytotoxic concentration (CC50) in the data set on MT-2 cells (MT-2 cells, XTT, four days, listed as 1, read-out: MT-2 Cells CC50) was about 150 µM; in the data set with MT-2 cells (setting [18]), 280 µM; in the data set with TZM-bl cells (setting [20]) it was over 60 µM. In the data set with TZM-bl cells (setting [19]), the “% toxicity at that dose … TZM-bl cells” value was found to be 10%.
